Measurements taken from patent publication US9084754B2, “Highly permeating terbinafine formulation” (NUVO RESEARCH INC., priority 2009, dated 2015).
Structures can show the parent of a compound that is named as a salt.

Test: Solubility of terbinafine hydrochloride
Format: physicochemical
Settings: for solubility at 24 h: thermodynamic from solid
Method: Buffer Preparation: Buffers were prepared at 50 mM concentration using ammonium acetate (pHs 4.0 and 10.0) or ammonium phosphate (pHs 6.0, 7.0, and 8.0). Solubility Sample Preparation: 100 to 800 mg terbinafine HCL was transferred to separate 4-mL vials. To each vial, 2 mL of the solvent to be investigated was added. Samples were capped and then rotated for 24 hours at room temperature. The samples were allowed to settle overnight at room temperature. Approximately 0.4 mL of the supernatant was removed and transferred to a 0.45 μm Nylon microcentrifuge filter and clarified. Samples were diluted with 50% methanol to within the calibration range. Sample Analysis: Samples were analyzed by HPLC with five-minute runs.

Q: For `CN(C/C=C/C#CC(C)(C)C)Cc1cccc2ccccc12` [Terbinafine, terbinafine hydrochloride], which solubility at 24 h (50 mM ammonium acetate buffer pH 4.0, aqueous buffer, solvent pH 4.0 buffer) is on record?
A: The solubility at 24 h was 4800 µg/mL.

Q: And the solubility at 24 h (50 mM ammonium acetate buffer pH 10.0, aqueous buffer, solvent pH 10.0 buffer)?
A: The solubility at 24 h was 1500 µg/mL.

Q: And the solubility at 24 h (50 mM ammonium phosphate buffer pH 6.0, aqueous buffer, solvent pH 6.0 buffer)?
A: The solubility at 24 h was 5000 µg/mL.

Q: And the solubility at 24 h (50 mM ammonium phosphate buffer pH 7.0, aqueous buffer, solvent pH 7.0 buffer)?
A: The solubility at 24 h was 20 µg/mL.

Q: And the solubility at 24 h (50 mM ammonium phosphate buffer pH 8.0, aqueous buffer, solvent pH 8.0 buffer)?
A: Its solubility at 24 h is 2 µg/mL.

Q: What about the solubility at 24 h (aqueous buffer, solvent PBS pH 5.5) of the same compound?
A: The solubility at 24 h was 700 µg/mL.

Q: And the Solubility in words (aqueous solvents with pHs of 4 and 6)?
A: The Solubility in words was “moderate solubility”.

Q: What about the solubility at 24 h (aqueous with cosolvent or surfactant or cyclodextrin, solvent 10% Ethanol) of the same compound?
A: Its solubility at 24 h is 7500 µg/mL.

Q: What about the solubility at 24 h (aqueous with cosolvent or surfactant or cyclodextrin, solvent 20% Ethanol) of the same compound?
A: The solubility at 24 h was 11000 µg/mL.

Q: What about the solubility at 24 h (aqueous with cosolvent or surfactant or cyclodextrin, solvent 40% Ethanol) of the same compound?
A: Its solubility at 24 h is 53000 µg/mL.

Q: What about the solubility at 24 h (aqueous with cosolvent or surfactant or cyclodextrin, solvent 50% Ethanol) of the same compound?
A: Its solubility at 24 h is 119000 µg/mL.

Q: And the Solubility in words (non-polar solvents such as ethyl acetate and isopropyl myristate)?
A: Its Solubility in words is “lower solubility”.

Q: And the solubility at 24 h (oil or lipid, solvent Isopropyl myristate)?
A: Its solubility at 24 h is 30 µg/mL.

Q: What about the solubility at 24 h (organic solvent or mixture, solvent DMSO) of the same compound?
A: Its solubility at 24 h is 114000 µg/mL.

Q: What about the solubility at 24 h (organic solvent or mixture, solvent Ethanol) of the same compound?
A: The solubility at 24 h was 172000 µg/mL.

Q: And the solubility at 24 h (organic solvent or mixture, solvent Isopropanol)?
A: The solubility at 24 h was 26300 µg/mL.

Q: What about the Solubility in words (pHs 7, 8, and 10) of the same compound?
A: The Solubility in words was “substantially lower solubility”.

Q: And the Solubility in words (polar organic solvents such as ethanol and DMSO)?
A: Its Solubility in words is “high solubility”.

Q: What about the Solubility (solvent 5% Ethanol) of the same compound?
A: Its Solubility is 6700 µg/mL.

Q: And the Solubility (solvent Ethyl acetate)?
A: Its Solubility is 700 µg/mL.

Q: And the solubility at 24 h (solvent Water, room temperature)?
A: The solubility at 24 h was 5900 µg/mL.
